From article PMC6048268, “Resveratrol Inhibits Key Steps of Steroid Metabolism in a Human Estrogen-Receptor Positive Breast Cancer Model: Impact on Cellular Proliferation” (Frontiers in Pharmacology, 2018)

Experiments:
[1] = tested on: MCF-7 cells; test: Cell proliferation, Casy cell counting, MCF-7; type: cell-based, human
Experimental: (§1) MDA-MB-231 and MCF-7 breast cancer cells were purchased from the American Type Culture Collection (ATCC; Manassas, VA, United States) and routinely cultivated at 37°C (95% humidity and 5% CO2) in phenolred-free Dulbecco’s modified Eagle medium F-12 (DMEM/F-12), fortified with 1% PenStrep®-solution and 10% fetal bovine serum (Invitrogen; Thermo Fisher Scientific, Inc., Waltham, MA, United States). All experiments were performed during the exponential growth phase of both cell lines. For the experiments, cells were seeded in 6-well-plates at a density of 1.0 × 10^6 cells per well and allowed to attach for 24 h.
(§2) Prior to cell counting with a Casy® TT Cell Counter (OLS OMNI Life Science, Bremen, Germany), the supernatant medium was removed and cells were detached using 400 μl TrypLe® solution (Invitrogen). All experiments were performed in triplicate, and the data were reported as the means ± standard deviation of all values.

[2] = molecular target: estrogen sulfation, S9 fractions from human liver; design: method as in Furimsky et al. (2008); conditions: ref Furimsky et al. (2008), read-out: Ki, inhibition of estrogen sulfation; cited from earlier work
[3] = tested on: SULT2A1 mRNA; test: Real-time PCR, SULT2A1 mRNA expression in MCF-7 cells; type: cell-based, human; conditions: 10 μM RES, 24 and 48 h, data not shown
Experimental: MCF-7 breast cancer cells were seeded in 6-well plates at a density of 1.0 × 10^6 cells per well and allowed to attach overnight. […] Expression profiling of genes of interest was performed as detailed previously ([Mechtcheriakova et al., 2007]; [Meshcheryakova et al., 2016]). Upon treatment, total RNA was isolated using peqGOLD TriFAST^TM reagent (VWR, Vienna, Austria) according to the manufacturer’s protocol. 1 μg RNA was used for cDNA generation using the High Capacity cDNA Reverse Transcription Kit (Thermo Fisher Scientific, Inc.) according to the instructions of the manufacturer. Real-time PCR analysis was performed in the 96-well plate format on a QuantStudio 12K Flex Real-Time PCR System (Thermo Fisher Scientific, Inc.). SULT1A1 and SULT2A1 were detected using the corresponding TaqMan Assays (Thermo Fisher Scientific, Inc.). […] HKGs primers were self-designed using the Primer Express 3.0 software (Thermo Fisher Scientific, Inc.) and validated using the Human Total RNA Master Panel (TaKaRa Bio, Inc., Saint-Germain-en-Laye, France), as described before ([Mechtcheriakova et al., 2007], [2011]); Primers: UBC forward: […]; UBC reverse: […]; GAPDH forward: […]; GAPDH reverse: […]; ACTB forward: […]; ACTB reverse: […]. For relative quantification, data were analyzed by applying the ΔΔCT method. […]

[4] = tested on: MDA-MB-231 cells; test: Cell proliferation, Casy cell counting, MDA-MB-231; type: cell-based, human
Experimental: as §1, §2

**Q.** With `Oc1ccc(/C=C/c2cc(O)cc(O)c2)cc1` [RES, 3,5,4′-trihydroxy-trans-stilbene] as the compound, how does the “increase in cell counts on co-incubation” value ([1]; 5 μM RES + 100 nM E1, 48 h, vs control without E1) read?
**A.** twofold increase in cell counts

**Q.** And the cell number ([1]; 5 μM RES, 48 h)?
**A.** 2.92 ± 0.16 × 10^6 cells

**Q.** And the “effect on cellular proliferation” value ([1]; 10 μM RES, 48 h)?
**A.** no effect

**Q.** What about the cell number ([1]; 100 μM RES, 48 h) of the same compound?
**A.** 1.08 ± 0.11 × 10^6 cells

**Q.** And the Emax at 5 µM ([1]; Homo sapiens, MCF7, 48 h, read-out: stimulation of cellular growth (maximal effect))?
**A.** 21.2 ± 3.3%

**Q.** And the IC50 ([1]; Homo sapiens, MCF7, MCF-7, 48 h, steroid-deprived, read-out: IC50 (inhibition of cell growth))?
**A.** 37.4 ± 14.5 µM

**Q.** And the Ki [2]?
**A.** 1.1 µM

**Q.** What about the “effect on SULT2A1 expression” value [3] of the same compound?
**A.** marginally down-regulated

**Q.** And the “number of viable cells” value ([4]; 2.5 μM RES, 48 h, seeded 1.0 × 10^6)?
**A.** 2.03 ± 0.16 × 10^6 cells

**Q.** And the “reduction of number of viable cells” value ([4]; 100 μM RES, 48 h)?
**A.** 68.6 ± 4.7%

**Q.** What about the IC50 ([4]; Homo sapiens, MDA-MB-231, 48 h, steroid-deprived, read-out: IC50 (inhibition of cell growth)) of the same compound?
**A.** 15.1 ± 4.9 µM

**Q.** And the “effect of simultaneous incubation with RES and E1 on cell proliferation” value ([4]; RES 0–100 μM with E1, 48 h)?
**A.** no observable effect
